From US5256782A, “Thienopyridine derivatives which are intermediates” (Takeda Chemical Industries, Ltd., priority 1990, dated 1993)

biological target: T1, acyl-CoA: cholesterol acyltransferase (ACAT) (Rattus norvegicus, UniProt Q7TQM4); experiment: ACAT inhibitory activity (labeled cholesterol ester formation from [1-14C]oleoyl-CoA and endogenous cholesterol; microsome fraction of rat tunica mucosa intestini tenuis); assay type: biochemical, Spregue-Dawley male rat; conditions: 10^-6 M; read-out: ACAT inhibitory rate (labeled cholesterol ester formation inhibitory rate)
T1 construct: microsome fraction of the tunica mucosa intestini tenuis; from tissue; host or cells: microsome fraction of small-intestinal mucosa, Sprague-Dawley male rat (six weeks old, fasted 20 hours)
T1 sequence (Q7TQM4 1-524): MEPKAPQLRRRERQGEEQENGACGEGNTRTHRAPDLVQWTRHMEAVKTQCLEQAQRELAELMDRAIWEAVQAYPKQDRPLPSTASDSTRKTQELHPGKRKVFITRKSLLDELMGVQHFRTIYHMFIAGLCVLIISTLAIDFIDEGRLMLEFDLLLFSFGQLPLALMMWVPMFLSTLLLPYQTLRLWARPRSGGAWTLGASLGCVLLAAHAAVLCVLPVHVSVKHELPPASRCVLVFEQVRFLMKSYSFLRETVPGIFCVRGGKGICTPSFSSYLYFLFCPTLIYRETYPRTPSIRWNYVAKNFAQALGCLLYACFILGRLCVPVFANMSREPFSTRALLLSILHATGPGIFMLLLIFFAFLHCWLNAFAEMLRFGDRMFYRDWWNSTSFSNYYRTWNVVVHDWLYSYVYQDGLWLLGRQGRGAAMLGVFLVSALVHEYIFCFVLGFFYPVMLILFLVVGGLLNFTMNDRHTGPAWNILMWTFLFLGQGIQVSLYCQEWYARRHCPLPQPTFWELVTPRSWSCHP
Procedure: An enzyme specimen ACAT was prepared from a microsome fraction of the tunica mucosa intestini tenuis of Spregue-Dawley male rat (six week old) which had been subjected to fasting for 20 hours according to the method described in Journal of Lipid Research, 24, 1127 (1982).
ACAT activity was calculated by measuring an amount of a labeled cholesterol ester formed from [1-^14 C]oleoyl-CoA and endogenous cholesterol according to the process of Helgerud et al. [Journal of Lipid Research, 22, 271 (1981)].
ACTA inhibitory activity of compounds tested are shown in Table 1 by a labeled cholesterol ester formation inhibitory rate (%) obtained by addition of the test compounds in an amount of 10^-6 M.

Compound	inhibition at 1 µM
CCc1cc2c(-c3ccccc3Cl)c(NC(=O)Nc3ccc(F)cc3F)cnc2s1 [Example 1, N-[4-(2-chlorophenyl)-2-ethylthieno[2,3-b]pyridin-5-yl]-N'-(2,4-difluorophenyl)urea]	98.7%
CCc1cc2c(-c3ccccc3Cl)c(NC(=O)C=Cc3cc(OC)c(OC(C)=O)c(OC)c3)cnc2s1 [Example 2, 5-(4-Acetoxy-3,5-dimethoxycinnamoylamino)-4-(2-chlorophenyl)-2-ethylthieno[2,3-b]pyridine]	74.3%
CCc1cc2c(-c3ccccc3Cl)c(NC(=O)Nc3ccc(F)cc3F)c(=O)n(C)c2s1 [Example 3, N-[4-(2-chlorophenyl)-6,7-dihydro-2-ethyl-7-methyl-6-oxothieno[2,3-b]pyridin-5-yl]-N'-(2,4-difluorophenyl)urea]	99.6%
CCc1cc2c(-c3ccccc3Cl)c(NC(=O)Nc3ccc(Cl)cc3)cnc2s1 [Example 4, N-(4-chlorophenyl)-N'-[4-(2-chlorophenyl)-2-ethylthieno[2,3-b]pyridin-5-yl]urea]	93.6%
Cc1sc2ncc(NC(=O)Nc3ccc(F)cc3F)c(-c3ccccc3Cl)c2c1C [Example 5, N-[4-(2-chlorophenyl)-2,3-dimethylthieno[2,3-b]pyridin-5-yl]-N'-(2,4-difluorophenyl)urea]	93.9%
O=C(Nc1ccc(F)cc1F)Nc1cnc2sc3c(c2c1-c1ccccc1Cl)CCC3 [Example 6, N-[4-(2-chlorophenyl)-6,7-dihydro-5H-cyclopenta[1',2':5,4]thieno[2,3-b]pyridin-3-yl]-N'-(2,4-difluorophenyl)urea]	96.3%
O=C(Nc1cnc2sc3c(c2c1-c1ccccc1Cl)CCC3)c1ccc(F)cc1F [Example 7, 4-(2-chlorophenyl)-3-(2,4-difluorobenzoylamino)-6,7-dihydro-5H-cyclopenta[1',2':5,4]thieno[2,3-b]pyridine]	34.4%
O=C(Cc1ccc(F)cc1F)Nc1cnc2sc3c(c2c1-c1ccccc1Cl)CCC3 [Example 8, 4-(2-chlorophenyl)-3-(2,4-difluorophenylacetylamino)-6,7-dihydro-5H-cyclopenta-[1',2':5,4]thieno-[2,3-b]pyridine]	94.4%
CCc1cc2c(-c3ccccc3OC)c(NC(=O)Nc3cc(C)c(OC(C)=O)c(C)c3)cnc2s1 [Example 13, N-(4-acetoxy-3,5-dimethylphenyl)-N'-[2-ethyl-4-(2-methoxyphenyl)thieno[2,3-b]pyridin-5-yl]urea]	97.5%
CCc1cc2c(-c3ccccc3OC)c(NC(=O)Nc3cc(OC)c(OC(C)=O)c(OC)c3)cnc2s1 [Example 14, N-(4-acetoxy-3,5-dimethoxyphenyl)-N'-[2-ethyl-4-(2-methoxyphenyl)thieno[2,3-b]pyridin-5-yl]urea]	91.9%

Now from value to molecule:

inhibition at 1 µM	Compound
60.2%	Cc1ccccc1-c1c(NC(=O)Nc2ccc(F)cc2F)cnc2sccc12 [Example 9, N-(2,4-difluorophenyl)-N'-[4-(2-methylphenyl)-thieno[2,3-b]pyridin-5-yl]urea]
95.1%	Cc1cc2c(-c3ccccc3Cl)c(NC(=O)Nc3ccc(F)cc3F)cnc2s1 [Example 10, N-[4-(2-chlorophenyl)-2-methylthieno[2,3-b]pyridin-5-yl]-N'-(2,4-difluorophenyl)urea]
94.5%	Cc1ccccc1-c1c(NC(=O)Nc2ccc(F)cc2F)cnc2sc(Cl)cc12 [Example 11, N-[2-chloro-4-(2-methylphenyl)thieno[2,3-b]pyridin-5-yl]-N'-[2,4-difluorophenyl)urea]

biological target: T1, acyl-CoA: cholesterol acyltransferase (ACAT); experiment: as above; assay type: biochemical, Spregue-Dawley male rat; conditions: 0.5 × 10^-6 M; read-out: ACAT inhibitory rate (labeled cholesterol ester formation inhibitory rate)

Compound	inhibition at 0.5 µM
O=C(Nc1ccc(F)cc1F)Nc1cnc2sc3c(c2c1-c1ccccc1Cl)CCCC3 [Example 12, N-[4-(2-chlorophenyl)-5,6,7,8-tetrahydro[1]-benzothieno[2,3-b]pyridin-3-yl]-N'-(2,4-difluorophenyl)urea]	82.3%
